In one experiment the test system is Mouse STC-1 cells. The experiment can be described thus: STC-1 GLP-1 assay. As to conditions: GLP-1 secretion, 2 h, coded A-C, read-out: Mouse STC-1 HTRF GLP-1 Activity (EC50). The format is cell-based. How it is done: We evaluated Compounds of the present invention for their ability to induce GLP-1 production in mouse intestinal neuroendocrine tumor cells. Mouse STC-1 cells were cultured and maintained in high glucose DMEM (Sigma #5796) supplemented with 15% horse serum, 5% Fetal Bovine Serum (FBS), 1% penicillin/streptomycin, and 2 mM L-alanine L-glutamine (GlutaMax). Two days prior to analysis of GLP-1 secretion cells were harvested using Accutase (Sigma), spun down then resuspended in high glucose DMEM media containing 2 mM L-alanine L-glutamine (GlutaMax), 10% charcoal-dextran stripped FBS, and 50 μg/mL Gentamicin, at a density of 100,000 cells/mL. 100 μL of cell suspension was added to each well of a 96-well Poly-D-Lysine coated culture plate (Sigma; cat #2382493) and was incubated at 37° C. with 5% CO2.
Compounds were initially diluted in 100% DMSO (12-point serial dilution by half logs) in a 96-well plate and then were further diluted 1:500 in Hanks' Balanced Salt Solution (HBSS) containing protease inhibitor cocktail, DPP-IV inhibitor, and 0.1% fatty acid free bovine serum albumin. On the day of the experiment cells were washed once with HBSS. After wash, 100 μL of test compound was added to each well. The plate was incubated at 37° C. with 5% CO2 for 2 h. Supernatants were collected and GLP-1 secretion was measured using the Cisbio™ Active GLP-1 HTRF Assay Kit (Cisbio). Briefly, Anti-GLP-1-d2 conjugate and Anti-GLP-1 Terbium Cryptate conjugate stock solutions were prepared as per kit instructions. The two solutions were pre-mixed and 10 μL were transferred to a 384-well low volume plate (Greiner; cat #784075). 10 μL of collected supernatants were added to wells already containing the conjugate solution. The plate was covered and incubated at room temperature overnight. The plate was read on an Envision™ plate reader (Perkin Elmer).
In Table 34, EC50 values obtained from the STC-1 GLP-1 production assay for compounds of the present invention are summarized.

A further experiment has as its target T1, human TGR5 receptor (Homo sapiens, UniProt Q8TDU6).
T1 construct: host or cells: CHO-K1 (hTGR5-CHO cells)
T1 sequence (Q8TDU6 1-330): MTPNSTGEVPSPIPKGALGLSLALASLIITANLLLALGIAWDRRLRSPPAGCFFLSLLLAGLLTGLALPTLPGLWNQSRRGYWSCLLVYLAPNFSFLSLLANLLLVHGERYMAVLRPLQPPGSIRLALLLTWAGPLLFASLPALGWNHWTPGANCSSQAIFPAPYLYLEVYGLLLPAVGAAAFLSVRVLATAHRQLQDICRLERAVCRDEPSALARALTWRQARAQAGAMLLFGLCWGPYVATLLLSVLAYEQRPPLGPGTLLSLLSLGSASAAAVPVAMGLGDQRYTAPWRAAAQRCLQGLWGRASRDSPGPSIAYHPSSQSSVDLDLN
The experiment can be described thus: Human TGR5 cAMP production assay. The format is cell-based. The settings on record: human TGR5, luminescent cAMP assay; coded A-D; read-out: Human TGR5 Lum. cAMP Activity (EC50). In outline: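 Intracellular cAMP read by luminescent enzyme-complementation (XS+) after overnight development, following 1 h room-temperature compound treatment of hTGR5-CHO-K1 cells in IBMX plus anti-cAMP antibody. Compounds tested as half-log dilution series; EC50 derived.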

For the molecule `CCc1cnccc1-c1cccc(C2CN(C(=O)CCC(=O)O)CCN2S(=O)(=O)c2cccc(Cl)c2C)c1` (racemic) [Compound 46, (+/−) 4-(4-((3-Chloro-2-methylphenyl)sulfonyl)-3-(3-(3-ethylpyridin-4-yl)phenyl)piperazin-1-yl)-4-oxobutanoic acid], the EC50 was 100 to 999 nM in the experiment with Mouse STC-1 cells and less than 100 nM on human TGR5 receptor.

Consider `CCc1cnccc1-c1cccc(C(C)(C)NS(=O)(=O)c2ccccc2C(F)(F)F)c1` [Compound 5, N-(2-(3-(3-ethylpyridin-4-yl)phenyl)propan-2-yl)-2-(trifluoromethyl)benzenesulfonamide], for which the results for the EC50 with Mouse STC-1 cells and on human TGR5 receptor were 100 to 999 nM and less than 100 nM, respectively.

`Cc1cnccc1-c1cccc(C(C)(C)NS(=O)(=O)c2cccc(C(F)(F)F)c2)c1` [Compound 5AA, N-(2-(3-(3-methylpyridin-4-yl)phenyl)propan-2-yl)-3-(trifluoromethyl)benzenesulfonamide]: the EC50 was 100 to 999 nM with Mouse STC-1 cells and less than 100 nM at human TGR5 receptor.

As for `Cc1cnccc1-c1cccc(C(C)(C)N(CCCC(=O)O)S(=O)(=O)c2ccccc2C(F)(F)F)c1` [Compound 14, 4-(N-(2-(3-(3-methylpyridin-4-yl)phenyl)propan-2-yl)-2-(trifluoromethyl)phenylsulfonamido)butanoic acid], the figures for the EC50 with Mouse STC-1 cells and on human TGR5 receptor were 100 to 999 nM and less than 100 nM, respectively.

Regarding `CCc1cnccc1-c1cccc(C(C)(C)N(CCCC(=O)NCCS(=O)(=O)O)S(=O)(=O)c2ccccc2C(F)(F)F)c1` [Compound 20, 2-(4-(N-(2-(3-(3-ethylpyridin-4-yl)phenyl)propan-2-yl)-2-(trifluoromethyl)-phenylsulfonamido)butanamido)ethanesulfonic acid], the concentration for a half-maximal effect (EC50) in the experiment with Mouse STC-1 cells and at human TGR5 receptor was less than 100 nM throughout.

Regarding `Cc1cnccc1-c1cccc(C(C)(C)N(CCCC(=O)NCCS(=O)(=O)O)S(=O)(=O)c2ccccc2C(F)(F)F)c1` [Compound 20AA, 2-(4-(N-(2-(3-(3-methylpyridin-4-yl)phenyl)propan-2-yl)-2-(trifluoromethyl)phenylsulfonamido)butanamido)ethanesulfonic acid], the results for the EC50 with Mouse STC-1 cells and at human TGR5 receptor were 100 to 999 nM and less than 100 nM, respectively.

On to `Cc1cnccc1-c1cccc(C(C)(C)N(CCCC(=O)NCS(=O)(=O)O)S(=O)(=O)c2ccccc2C(F)(F)F)c1` [Compound 20AB], for which the EC50 with Mouse STC-1 cells is 100 to 999 nM; at human TGR5 receptor, less than 100 nM.

For the molecule `CCc1cnccc1-c1cccc(C(C)(C)N(CCCC(=O)NCCS(=O)(=O)O)S(=O)(=O)c2cccc(Cl)c2C)c1` [Compound 20AC, 2-(4-(3-chloro-N-(2-(3-(3-ethylpyridin-4-yl)phenyl)propan-2-yl)-2-methylphenylsulfonamido)butanamido)ethanesulfonic acid], the results for the 50% effective concentration (EC50) in the experiment with Mouse STC-1 cells and at human TGR5 receptor were 100 to 999 nM and less than 100 nM, respectively.

On to `Cc1cnccc1-c1cccc(C(C)(C)N(CCCC(=O)NCCCS(=O)(=O)O)S(=O)(=O)c2cccc(Cl)c2C)c1` [Compound 20AD, 3-(4-(3-chloro-2-methyl-N-(2-(3-(3-methylpyridin-4-yl)phenyl)propan-2-yl)phenylsulfonamido)butanamido)propane-1-sulfonic acid], for which the EC50 on human TGR5 receptor was less than 100 nM.

Take `Cc1cnccc1-c1cccc(C(C)(C)N(CCCC(=O)NCCS(=O)(=O)NCC(=O)O)S(=O)(=O)c2cccc(Cl)c2C)c1` [Compound 20AW, (4-(3-chloro-2-methyl-N-(2-(3-(3-methylpyridin-4-yl)phenyl)propan-2-yl)phenylsulfonamido)-N-butanamidoethylsulfonamido)acetic acid]: on human TGR5 receptor, the half-maximal effective concentration (EC50) was less than 100 nM.

In the case of `Cc1cnccc1-c1cccc(C(C)(C)N(CCCC(=O)NCC(=O)O)S(=O)(=O)c2cccc(Cl)c2C)c1` [Compound 21AB, 2-(4-(3-chloro-2-methyl-N-(2-(3-(3-methylpyridin-4-yl)phenyl)propan-2-yl)phenylsulfonamido)butanamido)acetic acid], the EC50 on human TGR5 receptor is less than 100 nM.

Source of the values: US11236055B2 (Venenum Biodesign, LLC, priority 2016, dated 2022).
